Laboratory results taken from the supplement of paper PMC10307832.

What was measured:
Experiment in all cases: relative viability (nuclei count vs DMSO), 5 days (fraction); higher = more cells survive
[1] = compound: C1CCC(CC1)N(CCNCCC2=C3C(=C(C=C2)O)NC(=O)CO3)C(=O)CCNCCC4=CC(=C(C=C4)Cl)Cl [AZ505] + COc1cc2c(Oc3ccc(NC(=O)C4(C(=O)Nc5ccc(F)cc5)CC4)cc3F)ccnc2cc1OCCCN1CCOCC1 [Foretinib] (partner 0.25 µM)
Summary of the method: (§1)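 Cells from lung cancer lines were seeded into 1536-well plates and, one day later, dosed by pin tool. Treatments were either a single drug or a fixed dose of an anchor drug with five library-drug doses (not always all listed) in √10 steps. After 5 days, nuclei were stained in a one-step fixation (final 0.05% Triton X-100, 1% formaldehyde, 1 ug/ml Hoechst) and counted on 4× images, and relative viability is the treated-to-vehicle nuclei ratio, as the median of duplicate plates.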

[2] = compound: C1CCC(CC1)N(CCNCCC2=C3C(=C(C=C2)O)NC(=O)CO3)C(=O)CCNCCC4=CC(=C(C=C4)Cl)Cl [AZ505] + C[C@@H](Oc1cc(-c2cnn(C3CCNCC3)c2)cnc1N)c1c(Cl)ccc(F)c1Cl [Crizotinib] (partner 1 µM)
Summary of the method: as §1

[3] = compound: C1CCC(CC1)N(CCNCCC2=C3C(=C(C=C2)O)NC(=O)CO3)C(=O)CCNCCC4=CC(=C(C=C4)Cl)Cl [AZ505] + C[C@]1(O)C[C@@H](c2nc(-c3ccc4ccc(-c5ccccc5)nc4c3)c3c(N)nccn32)C1 [Linsitinib] (partner 1 µM)
Summary of the method: as §1

[4] = compound: Cn1c(=O)n(-c2ccc(C(C)(C)C#N)cc2)c2c3cc(-c4cnc5ccccc5c4)ccc3ncc21 [Dactolisib] + CS(=O)(=O)N1CCN(Cc2cc3nc(-c4cccc5[nH]ncc45)nc(N4CCOCC4)c3s2)CC1 [Pictilisib] (partner 1 µM)
Summary of the method: as §1

Cell Line	relative viability ([1]; first compound 0.08 µM)	relative viability ([1]; first compound 0.253 µM)	relative viability ([1]; first compound 0.8 µM)	relative viability ([1]; first compound 2.53 µM)	relative viability ([1]; first compound 8 µM)	relative viability ([2]; first compound 0.08 µM)	relative viability ([2]; first compound 0.253 µM)	relative viability ([2]; first compound 0.8 µM)	relative viability ([2]; first compound 2.53 µM)	relative viability ([2]; first compound 8 µM)	relative viability ([3]; first compound 0.08 µM)	relative viability ([3]; first compound 0.253 µM)	relative viability ([3]; first compound 0.8 µM)	relative viability ([3]; first compound 2.53 µM)	relative viability ([3]; first compound 8 µM)	relative viability ([4]; first compound 0.002 µM)	relative viability ([4]; first compound 0.006325 µM)	relative viability ([4]; first compound 0.02 µM)	relative viability ([4]; first compound 0.06325 µM)	relative viability ([4]; first compound 0.2 µM)
SW 1573	0.873	0.993	0.918	0.817	0.959	0.878	0.868	0.927	0.733	0.886	0.666	0.828	0.849	0.872	0.829	0.609	0.446	0.405	0.35	0.15
NCI-H1975	0.889	0.928	0.902	0.946	0.96	0.891	0.994	0.902	0.836	0.995	0.907	0.923	0.783	0.919	0.955	0.26	0.27	0.232	0.2	0.175
NCI-H1703	–	0.411	0.335	0.366	0.365	0.532	0.716	0.58	0.58	0.917	0.635	0.588	1.17	0.997	0.853	–	–	0.257	0.228	0.192
NCI-H1651	0.771	0.843	0.804	0.603	0.84	0.804	0.82	0.874	0.823	0.885	0.911	0.977	0.895	0.962	1.16	0.654	0.514	0.449	0.328	0.265
NCI-H441	0.909	0.97	1.09	0.876	1.06	0.615	0.823	0.995	0.699	0.738	0.513	0.51	0.662	0.543	0.509	0.758	0.464	0.412	0.285	0.233
LCLC-103H	0.734	0.857	0.729	0.848	0.715	0.868	1.03	0.987	1.01	0.969	1.01	0.807	1.03	1.06	1.07	0.611	0.583	0.602	0.577	0.498
LCLC-97TM1	0.874	0.87	0.888	0.86	1.02	0.503	0.479	0.478	0.709	0.413	0.257	0.2	0.16	0.201	0.199	0.252	0.151	0.169	0.145	0.12
NCI-H727	0.998	0.861	0.856	–	0.993	0.683	0.829	0.738	0.805	0.827	0.388	0.24	0.272	0.427	0.275	0.275	0.339	0.396	0.212	0.227
NCI-H1355	0.819	1.01	0.992	1	1.01	1.06	1.04	1.12	1.02	1.05	0.787	0.783	0.81	0.684	0.826	0.505	0.401	0.43	0.32	0.241
HOP-62	1.06	1.13	1.03	1.08	1.13	0.849	0.853	1.03	0.964	0.88	0.932	1.03	1.08	0.863	1.08	0.967	0.58	0.604	0.236	0.254
NCI-H2085	0.698	0.887	0.915	0.821	1.08	1.02	0.848	0.679	0.924	0.877	0.817	0.923	0.93	0.918	0.968	0.372	0.472	0.352	0.332	0.396
